Measurements reported in patent US20120041058A1, “COMPOSITION OF TRADITIONAL CHINESE MEDICINE FOR REDUCING BLOOD FAT AND PREPARATION METHOD THEREOF” (ANJI GREEN LIFE BIOTECH CO., LTD., priority 2009, published 2012).

Test system: acute high-lipid mouse model
Test: Acute high-lipid mouse model resulted from egg yolk emulsion injection: serum cholesterol and triglycerides
Assay type: in vivo, ICR mice
Conditions: for T-cho / Trig: ICR mice, oral 1 time/d for 14 d, blood 20 h after ip 75% egg yolk emulsion; for T-cho / Trig / Reduction rate of cholesterol / Reduction rate of triglyceride: dose 2 mg/mouse; for Reduction rate of cholesterol / Reduction rate of triglyceride: vs model mouse group, 14 d; for blood-lipid-lowering effect on the mouse model of high blood lipid caused by the egg yolk emulsion: after two weeks of oral administration, result in words
Protocol: The Treatment Efficiency of Blood-Lipid-Lowering Traditional Chinese Medicine Compositions Having Different Component Proportions on the Acute High-Lipid Mouse Models Resulted from Egg Yolk Emulsion Injection Male ICR mice of 20 g˜22 g are divided into several groups after 5 d adaptive feeding: control group, fed with normal saline; model group, fed with normal saline; positive control group, fed with Xuezhikang of 1000 mg/kg.

Row | SMILES | T-cho [mmol/L] | Trig [mmol/L] | Reduction rate of cholesterol [%] | Reduction rate of triglyceride [%] | blood-lipid-lowering effect on the mouse model of high blood lipid caused by the egg yolk emulsion
1 | C[C@@H]1CC[C@H]2[C@@H](C)C(=O)O[C@@H]3O[C@@]4(C)CC[C@@H]1[C@]32OO4 [Artemisinin, artemisinin] | 6.10 ± 3.20 | 8.90 ± 4.00 | 25.1 | 12.9 | 
2 | C[C@H]1[C@H](OC(=O)CCC(=O)O)O[C@@H]2O[C@@]3(C)CC[C@H]4[C@H](C)CC[C@@H]1[C@@]24OO3 [Artesunate, artesunate] | 8.32 ± 1.09 | 10.72 ± 2.68 | −2.21 | −4.89 | neither ursolic acid nor artesunate had the blood-lipid-lowering effect
3 | C[C@H]1[C@H](C)CC[C@]2(C(=O)O)CC[C@]3(C)C(=CC[C@@H]4[C@@]5(C)CC[C@H](O)C(C)(C)[C@@H]5CC[C@]43C)[C@H]12 [Ursolic acid, ursolic acid] | 9.11 ± 1.49 | 13.37 ± 3.63 | −11.92 | −30.82 | neither ursolic acid nor artesunate had the blood-lipid-lowering effect
